Test results published in patent US12581252B2, “Substituted pyrrolo[3,4-b]pyridines as PI3K-α inhibitors” (Relay Therapeutics, Inc., priority 2020, dated 2026).

Target: H1047R PIK3CA enzyme (Homo sapiens, UniProt P42336, H1047R)
Test: ADP-Glo Biochemical PIK3CA Kinase Assay

H1047R PIK3CA enzyme, sequence (P42336 whole entry H1047R): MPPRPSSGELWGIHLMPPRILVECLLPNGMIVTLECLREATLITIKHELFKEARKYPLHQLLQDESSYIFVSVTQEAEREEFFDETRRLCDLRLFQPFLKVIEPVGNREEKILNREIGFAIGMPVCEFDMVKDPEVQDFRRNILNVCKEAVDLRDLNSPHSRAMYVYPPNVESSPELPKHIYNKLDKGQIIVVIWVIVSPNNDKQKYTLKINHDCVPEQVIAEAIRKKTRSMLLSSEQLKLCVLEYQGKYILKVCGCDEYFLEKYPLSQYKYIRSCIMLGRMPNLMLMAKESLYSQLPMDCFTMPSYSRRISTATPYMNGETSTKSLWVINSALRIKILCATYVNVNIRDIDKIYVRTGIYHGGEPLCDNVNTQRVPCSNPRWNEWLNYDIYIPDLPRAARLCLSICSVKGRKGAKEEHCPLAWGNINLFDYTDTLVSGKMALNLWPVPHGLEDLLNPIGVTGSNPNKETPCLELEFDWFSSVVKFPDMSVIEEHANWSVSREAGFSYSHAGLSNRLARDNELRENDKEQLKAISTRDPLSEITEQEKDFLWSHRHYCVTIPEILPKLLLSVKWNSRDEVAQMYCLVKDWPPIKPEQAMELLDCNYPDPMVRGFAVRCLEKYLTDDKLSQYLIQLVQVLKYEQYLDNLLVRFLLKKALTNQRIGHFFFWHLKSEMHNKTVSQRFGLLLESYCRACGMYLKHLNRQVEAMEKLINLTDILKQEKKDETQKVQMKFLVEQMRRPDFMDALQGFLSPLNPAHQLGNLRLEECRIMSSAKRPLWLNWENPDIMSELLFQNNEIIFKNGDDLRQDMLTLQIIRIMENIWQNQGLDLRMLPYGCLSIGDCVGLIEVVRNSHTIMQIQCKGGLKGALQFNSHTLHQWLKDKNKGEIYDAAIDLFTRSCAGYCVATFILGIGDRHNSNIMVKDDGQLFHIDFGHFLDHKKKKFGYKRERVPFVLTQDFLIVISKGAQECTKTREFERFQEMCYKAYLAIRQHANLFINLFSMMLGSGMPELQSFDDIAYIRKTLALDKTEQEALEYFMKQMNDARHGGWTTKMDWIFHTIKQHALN
H1047R PIK3CA enzyme, sequence (P27986 whole entry partner): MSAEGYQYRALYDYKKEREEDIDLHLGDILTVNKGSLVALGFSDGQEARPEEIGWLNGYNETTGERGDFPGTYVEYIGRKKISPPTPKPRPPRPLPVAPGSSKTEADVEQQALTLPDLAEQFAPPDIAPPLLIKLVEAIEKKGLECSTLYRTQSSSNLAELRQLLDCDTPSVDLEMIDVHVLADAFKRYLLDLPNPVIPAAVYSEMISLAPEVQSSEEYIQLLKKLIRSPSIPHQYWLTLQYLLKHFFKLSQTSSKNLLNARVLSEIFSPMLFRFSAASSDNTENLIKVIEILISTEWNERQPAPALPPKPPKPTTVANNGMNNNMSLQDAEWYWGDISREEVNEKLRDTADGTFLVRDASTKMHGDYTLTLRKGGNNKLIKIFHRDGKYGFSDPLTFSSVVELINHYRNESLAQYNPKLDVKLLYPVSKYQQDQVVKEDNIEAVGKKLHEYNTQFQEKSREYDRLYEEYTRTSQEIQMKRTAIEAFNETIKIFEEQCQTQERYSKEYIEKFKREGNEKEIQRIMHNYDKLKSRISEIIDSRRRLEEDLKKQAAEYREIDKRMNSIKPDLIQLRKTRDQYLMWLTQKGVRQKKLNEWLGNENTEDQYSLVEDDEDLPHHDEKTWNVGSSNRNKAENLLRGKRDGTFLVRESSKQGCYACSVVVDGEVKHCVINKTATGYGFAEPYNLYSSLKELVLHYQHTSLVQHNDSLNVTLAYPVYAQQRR

IC50 [µM] | SMILES
10 to 100 | O=C1NC(c2cc(F)ccc2Cl)c2c(NC(=O)C3(C(F)(F)F)CC3)cc(Br)cc21 (stereo not shown) [Compound I-1204]
1 to 10 | CC(C)OC(C(=O)Nc1cc(-c2ccc3ncnn3c2)cc2c1C(c1cc(F)ccc1Cl)NC2=O)c1ccccc1 (stereo not shown) [Compound I-1662]
1 to 10 | O=C(Nc1cc(CS(=O)(=O)N2CCOCC2)cc2c1[C@@H](c1cc(F)ccc1Cl)NC2=O)c1cc(F)cc(C(F)(F)F)c1 [Compound I-1484]
10 to 100 | O=C(CC1CCc2ccccc21)Nc1cc(Br)cc2c1C(c1cc(F)ccc1Cl)NC2=O (stereo not shown) [Compound I-599]
0.1 to 0.5 | Cc1ccccc1C1NC(=O)c2c(C)ccc(NC(=O)c3csc4ccccc34)c21 (stereo not shown) [Compound I-153, N-(7-Methyl-1-oxo-3-(o-tolyl)isoindolin-4-yl)benzo[b]thiophene-3-carboxamide]
0.5 to 1 | O=C(Nc1cc(-c2cnc3ncc(Cl)n3c2)cc2c1[C@@H](c1cc(F)ccc1Cl)NC2=O)c1cc(F)cc(C(F)(F)F)c1 [Compound I-1984]
10 to 100 | O=C1N[C@H](c2cc(F)ccc2Cl)c2c(NC(=O)[C@H]3C[C@H](O)C[C@@H](C(F)(F)F)C3)cccc21 (single isomer, unassigned) [Compound I-2178]
1 to 10 | [2H]c1nc2cnc(-c3cc(NC(=O)c4cc(F)cc(C(F)(F)F)c4)c4c(c3)C(=O)N[C@@H]4c3cc(F)ccc3Cl)cn2n1 [Compound I-2068]
0.1 to 0.5 | O=C(Nc1cc(Br)cc2c1C(c1cc(F)ccc1Cl)NC2=O)c1cc(F)cc(Cl)c1Cl (stereo not shown) [Compound I-816]
10 to 100 | COc1ccccc1C(=O)Nc1cc(Br)cc2c1C(c1cc(F)ccc1Cl)NC2=O (stereo not shown) [Compound I-471]
≤ 0.1 | O=C(Nc1cc(-c2cn[nH]c2)cc2c1[C@@H](c1cc(F)ccc1Cl)NC2=O)c1cc(F)cc(C(F)(F)F)c1 [Compound I-1079]
10 to 100 | O=C1NC(c2cc(F)ccc2Cl)c2c(NCC(=O)N3CCCCC3)cc(-c3ccc4ncnn4c3)cc21 (stereo not shown) [Compound I-2038]
1 to 10 | O=C1N[C@H](c2cc(F)ccc2Cl)c2c(NC(=O)N3CCc4cc(F)ccc43)cc(-c3cnn(C(F)F)c3)cc21 (single isomer, unassigned) [Compound I-2356]
≤ 0.1 | O=C(Nc1cc(-c2cnc[nH]2)cc2c1C(c1cc(F)ccc1Cl)NC2=O)c1cc(F)cc(C(F)(F)F)c1 (stereo not shown) [Compound I-838]
≤ 0.1 | O=C(Nc1cc(N[C@@H]2CC[C@H]2O)cc2c1C(c1cc(F)ccc1Cl)NC2=O)c1cc(F)cc(C(F)(F)F)c1 (mixture of isomers) [Compound I-721]
≤ 0.1 | CN1C(=O)CCC1COc1cc(NC(=O)c2cc(F)cc(C(F)(F)F)c2)c2c(c1)C(=O)NC2c1cc(F)ccc1Cl (racemic) [Compound I-1347]
10 to 100 | Cn1cc(-c2ccc(Cl)c(C3NC(=O)c4cccc(NC(=O)c5cc(F)cc(C(F)(F)F)c5)c43)c2)cn1 (stereo not shown) [Compound I-489]
10 to 100 | O=C(Nc1cc(Br)cc2c1C(c1cc(F)ccc1Cl)NC2=O)c1ccccc1Cl (stereo not shown) [Compound I-477]
≤ 0.1 | O=C(Nc1cc(CNC2CC(F)(F)C2)cc2c1C(c1cc(F)ccc1Cl)NC2=O)c1cc(F)cc(C(F)(F)F)c1 (stereo not shown) [Compound I-349]
≤ 0.1 | N#Cc1cnn(Cc2cc(NC(=O)c3cc(F)cc(C(F)(F)F)c3)c3c(c2)C(=O)NC3c2cc(F)ccc2Cl)c1 (stereo not shown) [Compound I-1588]
1 to 10 | O=C(Nc1ccc(F)cc1F)Nc1ccnc2c1C(c1ccccc1Cl)NC2=O (stereo not shown) [Compound I-245]
1 to 10 | O=C(Nc1cc(NC2=NC[C@@H](C(F)(F)F)O2)cc2c1[C@@H](c1cc(F)ccc1Cl)NC2=O)c1cc(F)cc(C(F)(F)F)c1 (single isomer, unassigned) [Compound I-2326]
1 to 10 | Cc1ccccc1-n1[nH]c(=O)c2cccc(NC(=O)c3nsc4ccccc34)c21 [Compound I-117]
10 to 100 | NS(=O)(=O)c1cc(-c2ccc3ncnn3c2)cc2c1[C@H](c1cc(F)ccc1Cl)NC2=O [Compound I-2101]
10 to 100 | N#Cc1ccc(C(=O)Nc2cc(Br)cc3c2C(c2cc(F)ccc2Cl)NC3=O)cc1 (stereo not shown) [Compound I-517]
